Among the data in patent US20170157301A1, “LEOLIGIN DERIVATIVES AS SMOOTH MUSCLE CELL PROLIFERATION INHIBITORS” (TECHNISCHE UNIVERSITAET WIEN, priority 2014, published 2017) are a.r. code values, retold here.

Molecules are shown by their SMILES.

In the experiment the test system is SMCs in relation to ECs. As to the kind of experiment: activity ratio: efficiency towards SMCs / efficiency towards ECs. Type of experiment: cell-based. As to conditions: activity ratio class; order in Table 1 follows the calculated values. The procedure:
For determination of vascular SMC proliferation, 0.5×10^4 viable rat aortic SMCs per well were seeded in SMC growth medium (DMEM/F12 medium with 20% serum, 30 μg/mL Gentamicin and 15 ng/mL Amphotericin) in 96-well plates. 24 h later, the medium was removed, the cells were washed once with SMC starvation medium (DMEM/F12 medium with 0.1% serum, 0.2% BSA, 30 μg/mL Gentamicin and 15 ng/mL Amphotericin) and incubated in starvation medium for further 24 h.
The quiescent cells were then pretreated for 30 min with the test compounds and induced to proliferate with 20 ng/mL platelet-derived growth factor (PDGF). Unstimulated cells were utilized for normalization and estimation of the basal level of proliferation. The final concentration of the solvent vehicle, dimethyl sulfoxide (DMSO), was the same (0.1%) in all wells. 48 h later, the SMC proliferation was quantified by resazurin dye conversion for 2 h as previously described (H. Joa et al., J. Nat. Prod. 74(6), 1513-6 (2011)).
For determination of endothelial cell proliferation, 0.5×10^4 HUVECtert immortalized human umbilical vein endothelial cells (H. B. Schiller et al., Mol. Biol. Cell. 20(3), 745-756 (2009)) were seeded in 96-well plates for 24 h in HUVEC Complete Medium (EBM™ growth medium supplemented with 10% fetal bovine serum, EBM™ SingleQuots (Lonza, Basel, Switzerland), 100 U/mL benzylpenicillin, 100 μg/mL streptomycin, and 1% amphotericin). Afterwards, the medium was exchanged with fresh HUVEC Complete Medium and cells were treated with the indicated compounds for 48 h. After the end of the incubation period, the medium was removed, the cells were washed once with 200 μL/well PBS, and treated with 150 μL HUVEC Complete Medium containing 10 μg/mL resazurin. 2 h later, the fluorescence was measured at a wavelength of 580 nm, with excitation wavelength 535 nm in a 96-well plate reader (Tecan GENios Pro; Tecan Group Ltd., Mannedorf, Switzerland).
In every case, the percentage of viable cells was subtracted from 1, in order to obtain a measure of efficiency of the test compounds towards each particular type of cells, and subsequently, the efficiency quotient towards SMCs and ECs was calculated and taken as the “activity ratio” and thus as a measure of selective efficiency of each test compound towards SMCs in relation to ECs. For example, the synthetic Leoligin with the bio ID 2418 prepared in Comparative Example 27 as compound 10-22 gave the following results:
Due to the usual fluctuations in determining surviving cells, which amount to approximately ±10%, and due to the relatively strong resulting fluctuations in calculating quotients—especially if the inhibitory effect of said novel compounds towards ECs is very poor—said threshold value of 1.50 for the activity ratio, as already mentioned above, was introduced.
In the following, a table listing every compound prepared in examples and comparative Examples for which an activity ratio (a.r.) of >1.0 was determined, is given.
For the compound `C/C=C(\C)C(=O)OC[C@H]1[C@@H](Cc2ccc(OC)c(OC)c2)CO[C@@H]1c1cc(OC)c(OC)c(OC)c1` [Example 34, (E)-((2S,3R,4R)-4-(3,4-dimethoxybenzyl)-2-(3,4,5-trimethoxyphenyl)tetra-hydrofuran-3-yl)methyl 2-methylbut-2-enoate], the a.r. code entry is on record as “AAA (a.r. ≧ 5.0)”.

Turning to `COc1ccc([C@H]2OC[C@H](Cc3cccc4ccccc34)[C@@H]2CO)cc1OC` [Example 3, ((2S,3R,4R)-2-(3,4-dimethoxyphenyl)-4-(naphthalen-1-ylmethyl)tetrahydro-furan-3-yl)methanol], the a.r. code entry is “AA (a.r. ≧ 2.0)”.

Consider `COc1ccc([C@H]2OC[C@H](Cc3ccc(C(C)(C)C)cc3)[C@@H]2COC(=O)C2CCCC2)cc1OC` [Example 30, ((2S,3R,4R)-4-(4-(tert-butyl)benzyl)-2-(3,4-dimethoxyphenyl)tetrahydrofuran-3-yl)methyl cyclopentanecarboxylate], for which the a.r. code result is on record as “AA (a.r. ≧ 2.0)”.

As to `COc1ccc([C@H]2OC[C@H](Cc3ccc(C(C)(F)F)cc3)[C@@H]2CO)cc1OC` [Example 6, ((2S,3R,4R)-4-(4-(1,1-difluoroethyl)benzyl)-2-(3,4-dimethoxyphenyl)tetrahydro-furan-3-yl)methanol], the a.r. code result is “AA (a.r. ≧ 2.0)”.

`COc1ccc(C[C@H]2CO[C@H](c3cc(OC)c(OC)c(OC)c3)[C@H]2COC(=O)C2CCCC2)cc1OC` [Example 40, ((2S,3R,4R)-4-(3,4-dimethoxybenzyl)-2-(3,4,5-trimethoxyphenyl)tetrahydro-furan-3-yl)methyl cyclopentanecarboxylate]: the a.r. code result is on record as “AA (a.r. ≧ 2.0)”.

`C/C=C(/C)C(=O)OC[C@H]1[C@@H](Cc2ccc(OC)c(OC)c2)CO[C@@H]1c1ccc(OC)cc1` [Comparative Example 28, (Z)-((2S,3R,4R)-4-(3,4-dimethoxybenzyl)-2-(4-methoxyphenyl)tetrahydrofuran-3-yl)methyl 2-methylbut-2-enoate]: the a.r. code entry was “V (1.0 < a.r. < 1.50)”.

With `COc1cc([C@H]2OC[C@H](Cc3ccccc3)[C@@H]2CO)cc(OC)c1OC` [Example 7, ((2S,3R,4R)-4-benzyl-2-(3,4,5-trimethoxyphenyl)tetrahydrofuran-3-yl)methanol], the a.r. code entry was “AAA (a.r. ≧ 5.0)”.

In the case of `C/C=C(/C)C(=O)OC[C@H]1[C@@H](Cc2ccc(C(F)(F)F)cc2)CO[C@@H]1c1ccc(OC)c(OC)c1` [Comparative Example 24, (Z)-((2S,3R,4R)-2-(3,4-dimethoxyphenyl)-4-(4-(trifluoromethyl)benzyl)tetra-hydrofuran-3-yl)methyl 2-methylbut-2-enoate], the a.r. code result is on record as “V (1.0 < a.r. < 1.50)”.

With `C/C=C(/C)C(=O)OC[C@H]1[C@@H](Cc2ccc(OC)c(OC)c2)CO[C@@H]1c1ccc(F)cc1` [Comparative Example 26, (Z)-((2S,3R,4R)-4-(3,4-dimethoxybenzyl)-2-(4-fluorophenyl)tetrahydrofuran-3-yl)methyl 2-methylbut-2-enoate], the a.r. code entry was “V (1.0 < a.r. < 1.50)”.

`C/C=C(/C)C(=O)OC[C@H]1[C@@H](Cc2ccc(C(C)(F)F)cc2)CO[C@@H]1c1ccc(OC)c(OC)c1` [Example 14, (Z)-((2S,3R,4R)-4-(4-(1,1-difluoroethyl)benzyl)-2-(3,4-dimethoxyphenyl)tetra-hydrofuran-3-yl)methyl 2-methylbut-2-enoate]: the a.r. code entry is “A (a.r. ≧ 1.50)”.

As to `COc1ccc(C[C@H]2CO[C@H](c3ccc(OC)c(OC)c3)[C@H]2COC(=O)/C=C/c2ccccc2)cc1OC` [Example 24, ((2S,3R,4R)-4-(3,4-dimethoxybenzyl)-2-(3,4-dimethoxyphenyl)tetrahydrofuran-3-yl)methyl cinnamate], the a.r. code entry was “AA (a.r. ≧ 2.0)”.

For `C/C=C(/C)C(=O)OC[C@H]1[C@@H](Cc2ccc(C(=O)OCC)cc2)CO[C@@H]1c1ccc(OC)c(OC)c1` [Example 11, ethyl 4-(((3R,4R,5S)-5-(3,4-dimethoxyphenyl)-4-((((Z)-2-methylbut-2-enoyl)-oxy)methyl)tetrahydrofuran-3-yl)methyl)benzoate], the a.r. code entry is “A (a.r. ≧ 1.50)”.

Regarding `C#CCOC[C@H]1[C@@H](Cc2ccc(OC)c(OC)c2)CO[C@@H]1c1ccc(OC)c(OC)c1` [Example 43, (2S,3R,4R)-4-(3,4-dimethoxybenzyl)-2-(3,4-dimethoxyphenyl)-3-((prop-2-yn-1-yloxy)methyl)tetrahydrofuran], the a.r. code entry was “A (a.r. ≧ 1.50)”.

Consider `C/C=C(/C)C(=O)OC[C@H]1[C@@H](Cc2ccc(OC)cc2)CO[C@@H]1c1ccc(F)cc1` [Comparative Example 30, (Z)-((2S,3R,4R)-2-(4-fluorophenyl)-4-(4-methoxybenzyl)tetrahydrofuran-3-yl)-methyl 2-methylbut-2-enoate], for which the a.r. code entry is on record as “V (1.0 < a.r. < 1.50)”.

With `COc1ccc(C[C@H]2CO[C@H](c3ccc(OC)c(OC)c3)[C@H]2COC(=O)C2CCCC2)cc1OC` [Comparative Example 36, ((2S,3R,4R)-4-(3,4-dimethoxybenzyl)-2-(3,4-dimethoxyphenyl)tetrahydrofuran-3-yl)methyl cyclopentanecarboxylate], the a.r. code entry is “V (1.0 < a.r. < 1.50)”.

Turning to `C/C=C(/C)C(=O)OC[C@H]1[C@@H](Cc2ccc(C(F)(F)F)cc2)CO[C@@H]1c1ccccc1` [Example 16, (Z)-((2S,3R,4R)-2-phenyl-4-(4-(trifluoromethyl)benzyl)tetrahydrofuran-3-yl)-methyl 2-methylbut-2-enoate], the a.r. code entry is listed as “AAA (a.r. ≧ 5.0)”.

Consider `COc1ccc(C[C@H]2CO[C@H](c3ccc(OC)c(OC)c3)[C@H]2COC(=O)CC(C)(C)C)cc1OC` [Comparative Example 42, ((2S,3R,4R)-4-(3,4-dimethoxybenzyl)-2-(3,4-dimethoxyphenyl)tetrahydrofuran-3-yl)methyl 3,3-dimethylbutanoate], for which the a.r. code entry is “V (1.0 < a.r. < 1.50)”.

As for `C=CCOC[C@H]1[C@@H](Cc2ccc(OC)c(OC)c2)CO[C@@H]1c1ccc(OC)c(OC)c1` [Example 42, (2S,3R,4R)-3-((allyloxy)methyl)-4-(3,4-dimethoxybenzyl)-2-(3,4-dimethoxy-phenyl)tetrahydrofuran], the a.r. code entry is on record as “AAA (a.r. ≧ 5.0)”.

Regarding `C/C=C(/C)C(=O)OC[C@H]1[C@@H](Cc2ccc(C(F)(F)F)cc2)CO[C@@H]1c1ccc(F)cc1` [Example 15, (Z)-((2S,3R,4R)-2-(4-fluorophenyl)-4-(4-(trifluoromethyl)benzyl)tetrahydro-furan-3-yl)methyl 2-methylbut-2-enoate], the a.r. code result is listed as “AAA (a.r. ≧ 5.0)”.

For `C/C=C(/C)C(=O)OC[C@H]1[C@@H](Cc2ccc(C(C)(C)C)cc2)CO[C@@H]1c1ccc(OC)c(OC)c1` [Example 10, (Z)-((2S,3R,4R)-4-(4-(tert-butyl)benzyl)-2-(3,4-dimethoxyphenyl)tetrahydro-furan-3-yl)methyl 2-methylbut-2-enoate], the a.r. code entry is reported as “AA (a.r. ≧ 2.0)”.

Take `COc1ccc([C@H]2OC[C@H](Cc3ccc(C(F)(F)F)cc3)[C@@H]2COC(=O)c2ccccc2C)cc1OC` [Comparative Example 40, ((2S,3R,4R)-2-(3,4-dimethoxyphenyl)-4-(4-(trifluoromethyl)benzyl)tetrahydro-furan-3-yl)methyl 2-methylbenzoate]: the a.r. code result was “V (1.0 < a.r. < 1.50)”.
